{"source": "patent US3954985A", "about": "“Method for inhibiting bacterial growth with certain selected 3-chloro-tetrahydro-1,3-oxazines or oxazolidines” (INTERx Research Corporation, priority 1975, dated 1976)", "key": {"[1]": {"system": "Pseud. aeruginosa ATCC 9027", "assay": "Bactericidal endpoint (time for complete sterilization), ATCC 9027", "type": "cell-based", "excerpt": "(§1) The procedure employed to determine the antibacterial activity of 3-chloro-2,2,4,4-tetramethyl-tetrahydro1,3-oxazolidine and 3-chloro-2,2-[spiro-1'-methyl-4'-piperidinyl]-4,4-dimethyl-1,3-oxazolidinewas based primarily on a modification of the serial dilution method of analysis. However, instead of determining the minimum inhibitory concentration parameters for the compound investigated, applicants alternatively chose to determine the bactericidal endpoint for a given concentration of the compound investigated. Consequently, applicants' studies were established to determine the time required for complete sterilization of the micro-organism tested, when exposed to a given concentration of the compound investigated.\n(§2) A stock solution of each compound identified above was prepared using an appropriate buffered solution.\n(§3) For screening in the absence of a denaturing agent (e.g., horse serum) an equal volume of distilled water and the resulting solution was subjected to the screen.\n(§4) For screening in the presence of a denaturing agent, a volume of the stock solution was diluted using an equal volume of 10% horse serum. When necessary, the final solution was adjusted to the desired pH using 1N HCl and the solution was permitted to stand at room temperature for thirty minutes prior to the screening procedure.\n(§5) To 5 ml of the stock solution being evaluated, there was added 0.2 ml of an overnight broth culture containing the particular micro-organism being investigated (see above). At time intervals of 0.5, 1, 2, 3, 4, 5, . . . minutes, a loop of this suspension was subcultured into 5 ml of a sterile nutrient broth. All the samples were then incubated at 37°C for seven days with daily observation for evidence of bacterial growth. The time interval reported is for that sample in which no bacterial growth was observed after the incubation period."}, "[2]": {"system": "Staph. aureus ATCC 6538", "assay": "Bactericidal endpoint (time for complete sterilization), ATCC 6538", "type": "cell-based", "excerpt": "as §1, §2, §3, §4, §5"}, "[3]": {"system": "E. coli ATCC 10536", "assay": "Bactericidal endpoint (time for complete sterilization), ATCC 10536", "type": "cell-based", "excerpt": "as §1, §2, §3, §4, §5"}, "[4]": {"system": "Kleb. pneumoniae ATCC 10031", "assay": "Bactericidal endpoint (time for complete sterilization), ATCC 10031", "type": "cell-based", "excerpt": "as §1, §2, §3, §4, §5"}, "[5]": {"assay": "Stability in the neat state at 40°C (positive chlorine by thiosulfate titration)", "type": "physicochemical", "excerpt": "^a Weight of sample analyzed.\n^b Volume of 10^^-2 N sodium thiosulfate required to titrate\nthe sample at time (T).\n^c Percentage of positive chlorine in the sample analyzed."}, "[6]": {"system": "Bord. bronchiseptica ATCC 4617", "assay": "Bactericidal endpoint (time for complete sterilization), ATCC 4617", "type": "cell-based", "excerpt": "as §1, §2, §3, §4, §5"}, "[7]": {"system": "6501", "assay": "Bactericidal endpoint (time for complete sterilization), 6501", "type": "cell-based", "excerpt": "as §1, §2, §3, §4, §5"}, "[8]": {"system": "Staph. epidermidis ATCC 12228", "assay": "Bactericidal endpoint (time for complete sterilization), ATCC 12228", "type": "cell-based", "excerpt": "as §1, §2, §3, §4, §5"}, "[9]": {"settings": "0.5 M NaH2PO4 pH 7.0, diluent not given, 19.13 × 10^-3 M (6026 ppm)"}, "[10]": {"settings": "0.5 M NaH2PO4 pH 710 (so in the source), H2O, 19.75 × 10^-3 M (6221 ppm)"}, "[11]": {"settings": "0.5 M NaOAc pH 4.6, H2O, 17.0 × 10^-3 (5355 ppm)"}, "[12]": {"settings": "0.5 M NaOAc pH 4.6, Serum, 17.0 × 10^-3 (5355 ppm)"}}, "note": "“And” between values parts separate entries of the source, which are not always exact repeats. Identical values can stand only once."}
{"smiles": "CN1CCC2(CC1)OCC(C)(C)N2Cl", "values": [{"measurement": "Antibacterial activity, time, 9027", "setting": "[1]; [9]", "value": "> 10", "unit": "min"}, {"measurement": "Antibacterial activity, time, 9027", "setting": "[1]; [10]", "value": 1, "unit": "min"}, {"measurement": "Antibacterial activity, time, 9027", "setting": "[1]; [11]", "value": 0.5, "unit": "min"}, {"measurement": "Antibacterial activity, time, 9027", "setting": "[1]; [12]", "value": 1, "unit": "min"}, {"measurement": "Antibacterial activity, time, 6538", "setting": "[2]; [9]", "value": "> 10", "unit": "min"}, {"measurement": "Antibacterial activity, time, 6538", "setting": "[2]; [10]", "value": 4, "unit": "min"}, {"measurement": "Antibacterial activity, time, 6538", "setting": "[2]; [11]", "value": 1, "unit": "min"}, {"measurement": "Antibacterial activity, time, 6538", "setting": "[2]; [12]", "value": 6, "unit": "min"}, {"measurement": "Antibacterial activity, time, 10536", "setting": "[3]; [9]", "value": 4, "unit": "min"}, {"measurement": "Antibacterial activity, time, 10536", "setting": "[3]; [10]", "value": 1, "unit": "min"}, {"measurement": "Antibacterial activity, time, 10536", "setting": "[3]; [11]", "value": 0.5, "unit": "min"}, {"measurement": "Antibacterial activity, time, 10536", "setting": "[3]; [12]", "value": 0.5, "unit": "min"}, {"measurement": "Antibacterial activity, time, 10031", "setting": "[4]; [9]", "value": "> 10", "unit": "min"}, {"measurement": "Antibacterial activity, time, 10031", "setting": "[4]; [10]", "value": 1, "unit": "min"}, {"measurement": "Antibacterial activity, time, 10031", "setting": "[4]; [11]", "value": 0.5, "unit": "min"}, {"measurement": "Antibacterial activity, time, 10031", "setting": "[4]; [12]", "value": 1, "unit": "min"}, {"measurement": "%Cl (percentage of positive chlorine in the sample analyzed)", "setting": "[5]; 0 days", "value": 10.6, "unit": "%"}, {"measurement": "%Cl (percentage of positive chlorine in the sample analyzed)", "setting": "[5]; 1 day", "value": "10.2% and 10.3%"}, {"measurement": "%Cl (percentage of positive chlorine in the sample analyzed)", "setting": "[5]; 2 days", "value": "10.3% and 9.8%"}, {"measurement": "%Cl (percentage of positive chlorine in the sample analyzed)", "setting": "[5]; 3 days", "value": "9.8% and 10.0%"}, {"measurement": "%Cl (percentage of positive chlorine in the sample analyzed)", "setting": "[5]; 4 days", "value": 9.4, "unit": "%"}, {"measurement": "%Cl (percentage of positive chlorine in the sample analyzed)", "setting": "[5]; 5 days", "value": 9.7, "unit": "%"}, {"measurement": "%Cl (percentage of positive chlorine in the sample analyzed)", "setting": "[5]; 7 days", "value": "9.3% and 9.7%"}, {"measurement": "%Cl (percentage of positive chlorine in the sample analyzed)", "setting": "[5]; 10 days", "value": 9.8, "unit": "%"}, {"measurement": "%Cl (percentage of positive chlorine in the sample analyzed)", "setting": "[5]; 14 days", "value": "8.8% and 9.0%"}, {"measurement": "%Cl (percentage of positive chlorine in the sample analyzed)", "setting": "[5]; 21 days", "value": 9.4, "unit": "%"}, {"measurement": "%Cl (percentage of positive chlorine in the sample analyzed)", "setting": "[5]; 28 days", "value": "9.4% and 9.1%"}, {"measurement": "%Cl (percentage of positive chlorine in the sample analyzed)", "setting": "[5]; 35 days", "value": "8.9% and 9.0%"}, {"measurement": "%Cl (percentage of positive chlorine in the sample analyzed)", "setting": "[5]; 51 days", "value": 8.0, "unit": "%"}, {"measurement": "Antibacterial activity, time, 4617", "setting": "[6]; [9]", "value": "> 10", "unit": "min"}, {"measurement": "Antibacterial activity, time, 4617", "setting": "[6]; [10]", "value": 1, "unit": "min"}, {"measurement": "Antibacterial activity, time, 4617", "setting": "[6]; [11]", "value": 0.5, "unit": "min"}, {"measurement": "Antibacterial activity, time, 4617", "setting": "[6]; [12]", "value": 1, "unit": "min"}, {"measurement": "Antibacterial activity, time, 6501", "setting": "[7]; [9]", "value": "> 10", "unit": "min"}, {"measurement": "Antibacterial activity, time, 6501", "setting": "[7]; [10]", "value": 1, "unit": "min"}, {"measurement": "Antibacterial activity, time, 6501", "setting": "[7]; [11]", "value": 0.5, "unit": "min"}, {"measurement": "Antibacterial activity, time, 6501", "setting": "[7]; [12]", "value": 1, "unit": "min"}, {"measurement": "Antibacterial activity, time, 12228", "setting": "[8]; [9]", "value": "> 10", "unit": "min"}, {"measurement": "Antibacterial activity, time, 12228", "setting": "[8]; [10]", "value": 4, "unit": "min"}, {"measurement": "Antibacterial activity, time, 12228", "setting": "[8]; [11]", "value": 0.5, "unit": "min"}, {"measurement": "Antibacterial activity, time, 12228", "setting": "[8]; [12]", "value": 2, "unit": "min"}]}
